We go through 13 molecules from paper PMC11672299, “Conjugation of Polycationic Peptides Extends the Efficacy Spectrum of β‐Lactam Antibiotics” (Advanced Science, 2024).

Each structure is given as a SMILES string. Where two headings read alike, the source gives them in different places. Square brackets hold non-standard residues; d marks the D form. Peptide text beside a SMILES is read from it. * marks the point of attachment. X1 = CC(C)(O/N=C(\C(=O)N[C@@H]1C(=O)N2C(C(=O)[O-])=C(C[n+]3ccccc3)CS[C@H]12)c1csc(N)n1)C(=O)NCCCCCCN1C(=O)CC(*)C1=O

Data set [1] deals with K. pneumoniae ATCC 700 603 (SHV‐18). Nature of the data set: microbe, parasite or virus in culture. It is filed as cell-based. As to conditions: Klebsiella pneumoniae, 20 h; K. pneumoniae ATCC 700603 (SHV‐18); combinations: avibactam fixed 4 mg L^−1, clavulanic acid 2 mg L^−1; median (n = 3). Here is the method:
(§1) The minimum inhibitory concentration (MIC) of the β‐lactam–peptide conjugates was determined by broth microdilution as previously described.^[ [17] ^] Briefly, in cation‐adjusted MHB II medium, a twofold serial dilution of the compounds was prepared in 96‐well round‐bottom polystyrene or polypropylene microtiter plates with each well containing 50 µL. The plates were inoculated with 50 µL bacterial suspension and the final inoculum, in a total volume of 100 µL, contained 5 × 10^5 CFU mL^−1. The microplates were incubated for 20 h at 37 ± 1 °C. The lowest concentration preventing visible bacterial growth was considered the MIC value. For susceptibility testing of combinations of β‐lactamase‐inhibitors with either a β‐lactam antibiotic or a β‐lactam–peptide conjugate, fixed concentrations of the inhibitors according to the EUCAST (European Committee on Antimicrobial Susceptibility Testing) guidelines (clavulanic acid = 2 mg L^−1, avibactam = 4 mg L^−1) were used.

The test system of data set [2] is K. pneumoniae 0 6841/Nr.45 (Oxa48). As to the kind of experiment: microbe, parasite or virus in culture. As to conditions: Klebsiella pneumoniae, 20 h; K. pneumoniae 06841/Nr.45 (Oxa48); combinations: avibactam fixed 4 mg L^−1, clavulanic acid 2 mg L^−1; median (n = 3). The data set is classed as cell-based. The procedure: as §1
The test system of data set [3] is K. pneumoniae BL809453 (KPC). Nature of the data set: microbe, parasite or virus in culture. It is filed as cell-based. As to conditions: Klebsiella pneumoniae, 20 h, combinations: avibactam fixed 4 mg L^−1, clavulanic acid 2 mg L^−1, median (n = 3). The procedure:
as §1

The test system of a further data set is E. coli ATCC 25 922 (–). Nature of the data set: microbe, parasite or virus in culture. The data set is classed as cell-based. The settings on record: Escherichia coli, 20 h; E. coli ATCC 25922 (no β‐lactamase); combinations: avibactam fixed 4 mg L^−1, clavulanic acid 2 mg L^−1; median (n = 3). The procedure: as §1
The test system of a further data set is B. subtilis DSM 10. As to the kind of experiment: microbe, parasite or virus in culture. It is filed as cell-based. Here is the method: as §1
For data set [4], the system named is A. baumannii SC300007 (Oxa23). As to the kind of experiment: microbe, parasite or virus in culture. The data set is classed as cell-based. The settings on record: Acinetobacter baumannii, 20 h, combinations: avibactam fixed 4 mg L^−1, clavulanic acid 2 mg L^−1, median (n = 3). The procedure: as §1
The subject of data set [5] is E. casseliflavus ATCC 700327. Nature of the data set: microbe, parasite or virus in culture. The data set is classed as cell-based. As to conditions: E. casseliflavus ATCC 700327, median (n = 3). Here is the method:
as §1

The next data set has as its system E. faecalis ATCC 29212. As to the kind of experiment: microbe, parasite or virus in culture. The data set is classed as cell-based. The settings on record: E. faecalis ATCC 29212, median (n = 3). The procedure:
as §1

The next data set is described as follows: Scintigraphy in mice. It is filed as in vivo, Swiss mice. The procedure: To enable radiolabeling of the β‐lactam–peptide conjugates, their peptide sequence was elongated by an N‐terminal D‐tyrosine. […] The solution was mixed with 5 MBq of iodine‐125 and radiolabeling was performed using the chloramine T method as previously described.^[ [35] ^] After 30 s, the reaction was quenched by the addition of a saturated methionine solution and the radiolabeled compound purified by reversed‐phase preparative radio‐HPLC (1100 series, Agilent Technologies, Santa Clara, CA, USA). Analysis was performed by analytical radio‐HPLC (1100 series, Agilent Technologies, Santa Clara, CA, USA) using a linear gradient from water (+ 0.1% TFA) to acetonitrile (+ 0.1% TFA) over 5 min at a flow rate of 2 mL min^−1.
All animal studies were approved by the Animal Care and Use committees from Regierungspräsidium Karlsruhe (Karlsruhe, Germany; reference number 35–9185.81/G‐199/21; date of approval: November 23, 2021). To obtain scintigraphic images, 1–3 MBq of the respective ^125I‐radiolabeled β‐lactam–peptide conjugate was intravenously injected into the tail vein of isoflurane anaesthetized female Wistar rats or Swiss mice. Scintigraphic images were taken with a γ‐camera (Biospace Lab, Nesles‐la‐Vallée, France) at 10 min, 1, 2, 3, and 24 h after injection of the compounds.

Setting [6] is: Bacillus subtilis, DSM10, B. subtilis DSM 10, median (n = 3), read-out: MIC.
[7] abbreviates: Swiss mice, i.v., ^125I‐labelled, scintigraphy.

For `CC1(C)S[C@@H]2[C@H](NC(=O)[C@H](N)c3ccc(O)cc3)C(=O)N2[C@H]1C(=O)O` [AMO, amoxicillin], the MIC was over 64 µg/mL in data set [1]; over 64 µg/mL in data set [2]; over 64 µg/mL in data set [3]; 6 µg/mL with E. coli ATCC 25 922 (–); 0.1 µg/mL in the data set with B. subtilis DSM 10 (setting [6]); over 64 µg/mL in [4].
In the case of `NC(=O)[C@@H]1CC[C@@H]2CN1C(=O)N2OS(=O)(=O)O` [AVI, avibactam], the MIC in [1] was over 64 µg/mL; in data set [2] it was over 64 µg/mL; in data set [3], over 64 µg/mL; in the data set with E. coli ATCC 25 922 (–), 16 µg/mL; in data set [4], over 64 µg/mL.
For the molecule `C[C@H]1[C@H](NC(=O)/C(=N\OC(C)(C)C(=O)O)c2csc(N)n2)C(=O)N1S(=O)(=O)O` [AZT, aztreonam], the MIC with E. coli ATCC 25 922 (–) was 0.06 µg/mL; with B. subtilis DSM 10 (Bacillus subtilis, DSM10), 512 µg/mL; in [4], 64 µg/mL.
Consider `NC(=O)CCCCCN1C(=O)C=CC1=O` [BB linker, 6‐maleinimidohexanamide linker], for which the MIC in [5] was over 64 µg/mL; in the data set on E. faecalis ATCC 29212, over 64 µg/mL; in the data set with B. subtilis DSM 10 (B. subtilis DSM 10, median (n = 3)), over 64 µg/mL.
Turning to `O=C(O)[C@H]1/C(=C/CO)O[C@@H]2CC(=O)N21` [CLV, clavulanic acid], the MIC in data set [1] is 64 µg/mL; in data set [2], over 64 µg/mL; in [3], over 64 µg/mL; in the data set with E. coli ATCC 25 922 (–) it was 32 µg/mL; in data set [4] it was over 64 µg/mL.
For `CC(C)(O/N=C(\C(=O)N[C@@H]1C(=O)N2C(C(=O)[O-])=C(C[n+]3ccccc3)CS[C@H]12)c1csc(N)n1)C(=O)NCCCCCCN1C(=O)CC(SC[C@H](NC(=O)[C@H](CCCCN)NC(=O)[C@H](CCCCN)NC(=O)[C@H](CCCCN)NC(=O)[C@H](CCCCN)NC(=O)[C@H](CCCCN)NC(=O)[C@@H](N)CCCCN)C(N)=O)C1=O` (stereo partly drawn) [CTZ-K6] (H-KKKKKKC(X1)-NH2; N-terminus assumed), the MIC in the data set on B. subtilis DSM 10 (DSM 10, 20 h) came out at 0.02 µg/mL. Further, in the data set “Scintigraphy in mice” (mouse, in vivo, iv), the “elimination route / biodistribution” value was “renal elimination”.
Take `CC(C)(O/N=C(\C(=O)N[C@@H]1C(=O)N2C(C(=O)[O-])=C(C[n+]3ccccc3)CS[C@H]12)c1csc(N)n1)C(=O)NCCCCCCN1C(=O)CC(SC[C@H](NC(=O)[C@@H](N)CCCNC(=N)N)C(N)=O)C1=O` (stereo partly drawn) [CTZ-R1]: in the data set with B. subtilis DSM 10 (DSM 10, 20 h), the MIC stood at 1 µg/mL.
The same measure, in the same setting: the same measure for `CC(C)(O/N=C(\C(=O)N[C@@H]1C(=O)N2C(C(=O)[O-])=C(C[n+]3ccccc3)CS[C@H]12)c1csc(N)n1)C(=O)NCCCCCCN1C(=O)CC(SC[C@H](NC(=O)[C@H](CCCCN)NC(=O)[C@H](CCCCN)NC(=O)[C@H](CCCCN)NC(=O)[C@H](CCCNC(=N)N)NC(=O)[C@H](CCCNC(=N)N)NC(=O)[C@@H](N)CCCNC(=N)N)C(N)=O)C1=O` (stereo partly drawn) [CTZ-R3K3] (H-RRRKKKC(X1)-NH2; N-terminus assumed): 0.008 µg/mL.
The same measure, in the same setting: the same measure for `CC(C)(O/N=C(\C(=O)N[C@@H]1C(=O)N2C(C(=O)[O-])=C(C[n+]3ccccc3)CS[C@H]12)c1csc(N)n1)C(=O)NCCCCCCN1C(=O)CC(SC[C@H](NC(=O)[C@H](CCCNC(=N)N)NC(=O)[C@H](CCCNC(=N)N)NC(=O)[C@@H](N)CCCNC(=N)N)C(N)=O)C1=O` (stereo partly drawn) [CTZ-R3]: 0.06 µg/mL.
On to `CC(C)(O/N=C(\C(=O)N[C@@H]1C(=O)N2C(C(=O)[O-])=C(C[n+]3ccccc3)CS[C@H]12)c1csc(N)n1)C(=O)NCCCCCCN1C(=O)CC(SC[C@H](NC(=O)[C@H](CCCCN)NC(=O)[C@H](CCCCN)NC(=O)[C@H](CCCCN)NC(=O)[C@H](CCCCN)NC(=O)[C@H](CCCCN)NC(=O)[C@H](CCCCN)NC(=O)[C@H](N)Cc2ccc(O)cc2)C(N)=O)C1=O` (stereo partly drawn) [CTZ-yK6] (H-[dY]KKKKKKC(X1)-NH2; N-terminus assumed), for which, in the data set “Scintigraphy in mice” (setting [7]), the “elimination route / biodistribution” value is recorded as “eliminated by the kidneys”.
The same measure, in the same setting: as for `CC(C)(O/N=C(\C(=O)N[C@@H]1C(=O)N2C(C(=O)[O-])=C(C[n+]3ccccc3)CS[C@H]12)c1csc(N)n1)C(=O)NCCCCCCN1C(=O)CC(SC[C@H](NC(=O)[C@H](CCCNC(=N)N)NC(=O)[C@H](CCCNC(=N)N)NC(=O)[C@H](CCCNC(=N)N)NC(=O)[C@H](CCCNC(=N)N)NC(=O)[C@H](CCCNC(=N)N)NC(=O)[C@H](CCCNC(=N)N)NC(=O)[C@H](N)Cc2ccc(O)cc2)C(N)=O)C1=O` (stereo partly drawn) [CTZ-yR6] (H-[dY]RRRRRRC(X1)-NH2; N-terminus assumed), the entry is “mainly accumulated in the liver”.
`CC(C)(O/N=C(\C(=O)N[C@@H]1C(=O)N2C(C(=O)O)=C(C[n+]3ccccc3)CS[C@H]12)c1csc(N)n1)C(=O)NCCCCCCN1C(=O)C=CC1=O` [CTZ–BB linker]: the MIC in data set [5] (Enterococcus casseliflavus, ATCC700327, read-out: MIC) was over 64 µg/mL; with E. faecalis ATCC 29212 (Enterococcus faecalis, ATCC29212, read-out: MIC), 1 µg/mL; with B. subtilis DSM 10 (setting [6]), 24 µg/mL.
Turning to `C[C@@H](O)[C@H]1C(=O)N2C(C(=O)O)=C(S[C@@H]3CN[C@H](C(=O)Nc4cccc(C(=O)O)c4)C3)[C@H](C)[C@H]12` [ERT, ertapenem, reference compound], the MIC in the data set on B. subtilis DSM 10 (setting [6]) was found to be 0.5 µg/mL.
